Data taken from paper PMC7247319, “The mitochondria-targeted peptide SS-31 binds lipid bilayers and modulates surface electrostatics as a key component of its mechanism of action” (The Journal of Biological Chemistry, 2020).
Where a SMILES comes first, the peptide text is derived from it. [ ]: non-standard residue; d: D form. Dmt = Cc1cc(O)cc(C)c1C[C@H](N)C(=O)O

Assays:
isolated mitochondria [1] = assay: 31P ssNMR of mitochondrial membrane integrity under calcium stress; design: species or system S. cerevisiae
Method: (§1) Figure 7. SS peptide effects on Ca^2+-membrane interactions and mitochondrial cation stress. A, profiles of surface potential decay (top) and ion distribution (bottom) based on GCS theory in the presence or absence of SS-31 (see supporting Results H for model description). B, effect of SS peptides on Ca^2+ accumulation at model membrane interfaces. Time course measurements of CG-5N emission were performed in solutions with LUVs (20 mol % TOCL in host POPC background, [lipid]^eff = 100 μM) prebound with SS peptide at the indicated concentration followed by titration of CaCl2 in increments of 1 nmol at 20-s intervals starting at t = 60 s. C and D, effect of SS peptides on mitochondrial Ca^2+ uptake. […] Spectral deconvolution yielded the indicated components (see Fig. S19, A and B), which were used to quantify the area ratios of L2/iso in F (values shown are means ± S.D. (error bars) (n = 3). G, respirometry analysis. Mitochondria (1 mg ml^−1) were treated in the absence or presence of SS-31 (54.4 μM) or CaCl2 (1 mM) as indicated and measured for state 2 respiration (n = 10–12 each).
Finally, we measured the effects of SS peptides on mitochondrial calcium stress that may occur independently of Ca^2+ uptake into the matrix. […] To corroborate these findings, we measured mitochondrial oxygen consumption rates under similar conditions of SS peptide treatment and calcium stress. […]

isolated mitochondria [2] = assay: TMRM time course of ΔΨm generation in mitochondria with ETH-129 and calcium; design: species or system S. cerevisiae
Method: as §1, with “s.” for “s. C and D, effect of SS peptides on mitochondrial Ca^2+ uptake.”
Second, we measured the effects of SS peptides on mitochondrial Ca^2+ flux. […] In these experiments, we monitored the relative ΔΨm using the potentiometric probe tetramethylrhodamine methyl ester (TMRM) (the emission of which is inversely related to membrane potential; Fig. S17E) and, in parallel, monitored the external [Ca^2+] using CG-5N (Fig. 7C and Fig. S18A). […]

Cc1cc(O)cc(C)c1C[C@H](NC(=O)[C@H](N)CCCNC(=N)N)C(=O)N[C@@H](CCCCN)C(=O)N[C@@H](Cc1ccccc1)C(N)=O [SS-31, D-Arg-2′6′-dimethyl-Tyr-Lys-Phe-NH2] (H-[dR][Dmt]KF-NH2)
effect on NMR-detected membrane degradation caused by high calcium load (isolated mitochondria [1]; acute treatment 8.5 nmol of peptide/mg of mitochondrial protein (0.6 mM, 70 mg ml^−1), up to 5 mM CaCl2, 4 °C): reduced NMR-detected membrane degradation
effect on L2 peak (lamellar phospholipid bilayers), L2/iso area ratio (isolated mitochondria [1]; spectral deconvolution, 5 mM CaCl2, n = 3): significant preservation of the L2 peak
dose response of effect on Ca2+-dependent ΔΨm generation delay (isolated mitochondria [2]; 25 μM CaCl2, 1 mM NADH, n = 3): dose-dependent and saturable
effect on temporal delay in mitochondrial energization (ΔΨm generation) with Ca2+ (isolated mitochondria [2]; ETH-129, NADH, increasing [Ca2+], TMRM): reduced the extent of this temporal delay
